What is called IC50 is the midpoint of a concentration-inhibition curve.

Bounds are passed on as bounds.

This test addresses T1, recombinant human 11 β-HSD1 (Homo sapiens, UniProt P28845).
T1 construct: made in house; host or cells: E. coli
As to the kind of experiment: 11 β-HSD1 SPA Assay (Scintillation Proximity Assay). The test is classed as biochemical. In short, it runs like this:
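E. coli-expressed human enzyme (30-100 nM) with tritiated cortisone 40 nM and NADPH 1 mM in HEPES buffer pH7.4, 2 hours at room temperature. Stopped with protein A SPA beads carrying anti-cortisol antibody and glycyrrhetinic acid; counted after overnight incubation. IC50 from percent inhibition between no-enzyme and no-compound signals.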
For orientation: Scintillation proximity formats need no separation of bound from free tracer.

T1 sequence (P28845 whole entry): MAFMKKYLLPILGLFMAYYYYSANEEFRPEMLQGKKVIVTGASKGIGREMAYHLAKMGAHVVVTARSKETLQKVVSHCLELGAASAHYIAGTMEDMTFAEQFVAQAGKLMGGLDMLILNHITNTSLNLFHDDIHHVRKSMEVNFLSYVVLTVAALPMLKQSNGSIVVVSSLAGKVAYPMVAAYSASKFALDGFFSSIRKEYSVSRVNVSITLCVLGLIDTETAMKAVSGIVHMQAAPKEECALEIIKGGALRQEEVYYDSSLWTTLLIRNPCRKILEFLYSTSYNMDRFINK

As for `CCN(CC)CCNC(=O)c1ccc(N2[C@@H]3CC[C@H]2C[C@@H](NC(=O)C(C)(C)Oc2ccc(Cl)cc2Cl)C3)nc1` [Example 377, 6-(3-endo-{[2-(2,4-dichlorophenoxy)-2-methylpropanoyl]amino}-8-azabicyclo[3.2.1]oct-8-yl)-N-[2-(diethylamino)ethyl]pyridine-3-carboxamide], the IC50 is less than 200 nM.

On to `CC(C)(Oc1ccc(Cl)cc1Cl)C(=O)N[C@H]1C[C@H]2CC[C@@H](C1)N2c1ccc(C(=O)NC2CCOCC2)cn1` [Example 378, 6-(3-endo-{[2-(2,4-dichlorophenoxy)-2-methylpropanoyl]amino}-8-azabicyclo[3.2.1]oct-8-yl)-N-(tetrahydro-2h-pyran-4-yl)pyridine-3-carboxamide], for which the IC50 is less than 200 nM.

Regarding `CC(C)(Oc1ccc(Cl)cc1Cl)C(=O)N[C@H]1C[C@H]2CC[C@@H](C1)N2c1ccc(C(=O)NC2CCS(=O)(=O)CC2)cn1` [Example 379, 6-(3-endo-{[2-(2,4-dichlorophenoxy)-2-methylpropanoyl]amino}-8-azabicyclo[3.2.1]oct-8-yl)-N-(1,1-dioxidotetrahydro-2h-thiopyran-4-yl)pyridine-3-carboxamide], the half-maximal inhibitory concentration (IC50) is less than 200 nM.

As for `CC(C)(Oc1ccc(Cl)cc1Cl)C(=O)N[C@H]1C[C@H]2CC[C@@H](C1)N2c1ccc(C(=O)NC2CCSCC2)cn1` [Example 380, 6-(3-endo-{[2-(2,4-dichlorophenoxy)-2-methylpropanoyl]amino}-8-azabicyclo[3.2.1]oct-8-yl)-N-(tetrahydro-2H-thiopyran-4-yl)pyridine-3-carboxamide], the IC50 was less than 200 nM.

Regarding `CC(C)(Oc1cc(C(C)(C)O)c(Cl)cc1Cl)C(=O)NC1CC2CCC(C1)N2c1ccc(C(=O)NCC(O)C(F)(F)F)cn1` (stereo not drawn) [Example 381, 6-[3-endo-({2-[2,4-dichloro-5-(2-hydroxypropan-2-yl)phenoxy]-2-methylpropanoyl}amino)-8-azabicyclo[3.2.1]oct-8-yl]-N-(3,3,3-trifluoro-2-hydroxypropyl)pyridine-3-carboxamide], the IC50 was less than 200 nM.

`COCCOc1cc(OC(C)(C)C(=O)N[C@H]2C[C@H]3CC[C@@H](C2)N3c2ccc(C(=O)NCC(F)(F)F)cn2)c(Cl)cc1Cl` [Example 382, 6-[3-endo-({2-[2,4-dichloro-5-(2-methoxyethoxy)phenoxy]-2-methylpropanoyl}amino)-8-azabicyclo[3.2.1]oct-8-yl]-N-(2,2,2-trifluoroethyl)pyridine-3-carboxamide]: the IC50 is less than 200 nM.

Turning to `CC(C)(Oc1ccc(Cl)cc1CCO)C(=O)N[C@H]1C[C@H]2CC[C@@H](C1)N2c1ccc(C(=O)NCC(F)(F)F)cn1` [Example 383, 6-[3-endo-({2-[4-chloro-2-(2-hydroxyethyl)phenoxy]-2-methylpropanoyl}amino)-8-azabicyclo[3.2.1]oct-8-yl]-N-(2,2,2-trifluoroethyl)pyridine-3-carboxamide], the IC50 is less than 200 nM.

With `CC(C)(Oc1ccc(Cl)cc1Cl)C(=O)N[C@H]1C[C@H]2CC[C@@H](C1)N2c1ccc(C(=O)NC2(CO)CC2)cn1` [Example 384, 6-(3-endo-{[2-(2,4-dichlorophenoxy)-2-methylpropanoyl]amino}-8-azabicyclo[3.2.1]oct-8-yl)-N-[1-(hydroxymethyl)cyclopropyl] pyridine-3-carboxamide], the IC50 is less than 200 nM.

On to `CC(C)(Oc1cccc2[nH]ncc12)C(=O)N[C@H]1C[C@H]2CC[C@@H](C1)N2c1ccc(C(=O)NCC(F)(F)F)cn1` [Example 385, 6-(3-endo-{[2-(1H-indazol-4-yloxy)-2-methylpropanoyl]amino}-8-azabicyclo[3.2.1]oct-8-yl)-N-(2,2,2-trifluoroethyl)pyridine-3-carboxamide], for which the IC50 is less than 200 nM.

For `CC(C)(Oc1ccc(Cl)cc1Cl)C(=O)N[C@H]1C[C@H]2CC[C@@H](C1)N2c1ccc(C(=O)Nc2ccon2)cn1` [Example 386, 6-(3-endo-{[2-(2,4-dichlorophenoxy)-2-methylpropanoyl]amino}-8-azabicyclo[3.2.1]oct-8-yl)-N-(isoxazol-3-yl)pyridine-3-carboxamide], the concentration for half-maximal inhibition (IC50) was less than 200 nM.

Regarding `CC(C)(Oc1ccc(Cl)cc1OCCn1ccnc1)C(=O)N[C@H]1C[C@H]2CC[C@@H](C1)N2c1ccc(C(=O)NCC(F)(F)F)cn1` [Example 387, 6-{3-endo-[(2-{4-chloro-2-[2-(1H-imidazol-1-yl)ethoxy]phenoxy}-2-methylpropanoyl)amino]-8-azabicyclo[3.2.1]oct-8-yl}-N-(2,2,2-trifluoroethyl)pyridine-3-carboxamide], the IC50 is less than 2000 nM.

For the compound `CC(C)(Oc1ccc(Cl)cc1S(N)(=O)=O)C(=O)N[C@H]1C[C@H]2CC[C@@H](C1)N2c1ccc(C(=O)NCC(F)(F)F)cn1` [Example 388, 6-(3-endo-{[2-(4-chloro-2-sulfamoylphenoxy)-2-methylpropanoyl]amino}-8-azabicyclo[3.2.1]oct-8-yl)-N-(2,2,2-trifluoroethyl)pyridine-3-carboxamide], the IC50 was less than 2000 nM.

On to `CC(C)(Oc1ccc(Cl)cc1OCCO)C(=O)N[C@H]1C[C@H]2CC[C@@H](C1)N2c1ccc(C(=O)NCC(F)(F)F)cn1` [Example 389, 6-[3-endo-({2-[4-chloro-2-(2-hydroxyethoxy)phenoxy]-2-methylpropanoyl}amino)-8-azabicyclo[3.2.1]oct-8-yl]-N-(2,2,2-trifluoroethyl)pyridine-3-carboxamide], for which the half-maximal inhibitory concentration (IC50) was less than 200 nM.

On to `CC(C)(Oc1cccc2cc[nH]c12)C(=O)N[C@H]1C[C@H]2CC[C@@H](C1)N2c1ccc(C(=O)NCC(F)(F)F)cn1` [Example 390, 6-(3-endo-{[2-(1H-indol-7-yloxy)-2-methylpropanoyl]amino}-8-azabicyclo[3.2.1]oct-8-yl)-N-(2,2,2-trifluoroethyl)pyridine-3-carboxamide], for which the IC50 is less than 200 nM.

In the case of `CC(C)(Oc1ccc(C(C)(C)O)cc1Cl)C(=O)N[C@H]1C[C@H]2CC[C@@H](C1)N2c1ccc(C(=O)NCC(F)(F)F)cn1` [Example 391, 6-[3-endo-({2-[2-chloro-4-(2-hydroxypropan-2-yl)phenoxy]-2-methylpropanoyl}amino)-8-azabicyclo[3.2.1]oct-8-yl]-N-(2,2,2-trifluoroethyl)pyridine-3-carboxamide], the IC50 was less than 200 nM.

Regarding `CC(C)(Oc1cc(OCCO)c(Cl)cc1Cl)C(=O)NC1CC2CCC(C1)N2c1ccc(C(=O)NC2CC2(F)F)cn1` (stereo not drawn) [Example 392, 6-[3-endo-({2-[2,4-dichloro-5-(2-hydroxyethoxy)phenoxy]-2-methylpropanoyl}amino)-8-azabicyclo[3.2.1]oct-8-yl]-N-(2,2-difluorocyclopropyl)pyridine-3-carboxamide], the IC50 is less than 200 nM.

As for `CC(C)(Oc1ccc(Cl)cc1C(F)F)C(=O)NC1CC2CCC(C1)N2c1ccc(C(=O)NC2CC2(F)F)cn1` (stereo not drawn) [Example 393, 6-[3-endo-({2-[4-chloro-2-(difluoromethyl)phenoxy]-2-methylpropanoyl}amino)-8-azabicyclo[3.2.1]oct-8-yl]-N-(2,2-difluorocyclopropyl)pyridine-3-carboxamide], the IC50 was less than 200 nM.

As to `CC(C)(Oc1ccc(Cl)cc1OC(F)(F)F)C(=O)NC1CC2CCC(C1)N2c1ccc(C(=O)NC2CC2(F)F)cn1` (stereo not drawn) [Example 394, 6-[3-endo-({2-[4-chloro-2-(trifluoromethoxy)phenoxy]-2-methylpropanoyl}amino)-8-azabicyclo[3.2.1]oct-8-yl]-N-(2,2-difluorocyclopropyl)pyridine-3-carboxamide], the IC50 is less than 200 nM.

In the case of `CC(C)(CO)NC(=O)c1ccc(N2[C@@H]3CC[C@H]2C[C@@H](NC(=O)C(C)(C)Oc2ccc(Cl)cc2Cl)C3)nc1` [Example 395, 6-(3-endo-{[2-(2,4-dichlorophenoxy)-2-methylpropanoyl]amino}-8-azabicyclo[3.2.1]oct-8-yl)-N-(1-hydroxy-2-methylpropan-2-yl)pyridine-3-carboxamide], the IC50 was less than 200 nM.

For the compound `CC(C)(O)CNC(=O)c1ccc(N2[C@@H]3CC[C@H]2C[C@@H](NC(=O)C(C)(C)Oc2ccc(Cl)cc2Cl)C3)nc1` [Example 396, 6-(3-endo-{[2-(2,4-dichlorophenoxy)-2-methylpropanoyl]amino}-8-azabicyclo[3.2.1]oct-8-yl)-n-(2-hydroxy-2-methylpropyl)pyridine-3-carboxamide], the IC50 is less than 200 nM.

Regarding `C[C@@H](CO)NC(=O)c1ccc(N2C3CCC2CC(NC(=O)C(C)(C)Oc2ccc(Cl)cc2Cl)C3)nc1` (stereo partly drawn) [Example 397, 6-(3-endo-{[2-(2,4-dichlorophenoxy)-2-methylpropanoyl]amino}-8-azabicyclo[3.2.1]oct-8-yl)-N-[(2S)-1-hydroxypropan-2-yl]pyridine-3-carboxamide], the IC50 was less than 200 nM.

For `C[C@H](CO)NC(=O)c1ccc(N2C3CCC2CC(NC(=O)C(C)(C)Oc2ccc(Cl)cc2Cl)C3)nc1` (stereo partly drawn) [Example 398, 6-(3-endo-{[2-(2,4-dichlorophenoxy)-2-methylpropanoyl]amino}-8-azabicyclo[3.2.1]oct-8-yl)-N-[(2R)-1-hydroxypropan-2-yl]pyridine-3-carboxamide], the concentration for half-maximal inhibition (IC50) was less than 200 nM.

For the compound `CC(C)(Oc1ncc(Cl)cc1Cl)C(=O)NC1CC2CCC(C1)N2c1ccc(C(=O)NC2CC2(F)F)cn1` (stereo not drawn) [Example 399, 6-(3-endo-(2-(3,5-dichloropyridin-2-yloxy)-2-methylpropanamido)-8-azabicyclo[3.2.1]octan-8-yl)-N-(2,2-difluorocyclopropyl) nicotinamide], the IC50 is less than 200 nM.

Turning to `CC(C)NC(=O)c1ccc(N2[C@@H]3CC[C@H]2C[C@@H](NC(=O)C(C)(C)Oc2ncc(Cl)cc2Cl)C3)nc1` [Example 400, 6-(3-endo-(2-(3,5-dichloropyridin-2-yloxy)-2-methylpropanamido)-8-azabicyclo[3.2.1]octan-8-yl)-N-isopropylnicotinamide], the IC50 is less than 200 nM.

For the compound `CC(C)(Oc1ccc(Cl)cc1OC(F)(F)F)C(=O)N[C@H]1C[C@H]2CC[C@@H](C1)N2c1ccc(C(=O)NCC(F)F)cn1` [Example 401, 6-(3-endo-(2-(4-chloro-2-(trifluoromethoxy)phenoxy)-2-methylpropanamido)-8-azabicyclo[3.2.1]octan-8-yl)-N-(2,2-difluoroethyl)nicotinamide], the IC50 is less than 200 nM.

(Values after patent US8163771B2, “11 β-HSD1 modulators” (Exelixis, Inc., priority 2008, dated 2012).)
